PubChem BioAssay AID1259407 (Chemical Carcinogenesis Research Information System (CCRIS), 2018)
Calls of active or inactive are those of the source. How the calls were made is not given here.

Test system: CCRIS mutagenicity, Ames/micronucleus/aberration tests
Assay: CCRIS mutagenicity studies
[1] = Test System: AMES SALMONELLA TYPHIMURIUM, Strain/Indicator: TA98, Metabolic Activation: HAMSTER, LIVER, S-9, AROCLOR 1254 (30%), Method: PREINCUBATION
[2] = Test System: AMES SALMONELLA TYPHIMURIUM, Strain/Indicator: TA98, Metabolic Activation: NONE, Method: PREINCUBATION
[3] = Test System: AMES SALMONELLA TYPHIMURIUM, Strain/Indicator: TA98, Metabolic Activation: RAT, LIVER, S-9, AROCLOR 1254 (30%), Method: PREINCUBATION
[4] = Test System: AMES SALMONELLA TYPHIMURIUM, Strain/Indicator: TA100, Metabolic Activation: HAMSTER, LIVER, S-9, AROCLOR 1254 (30%), Method: PREINCUBATION
[5] = Test System: AMES SALMONELLA TYPHIMURIUM, Strain/Indicator: TA100, Metabolic Activation: NONE, Method: PREINCUBATION
[6] = Test System: AMES SALMONELLA TYPHIMURIUM, Strain/Indicator: TA100, Metabolic Activation: RAT, LIVER, S-9, AROCLOR 1254 (30%), Method: PREINCUBATION
[7] = Test System: AMES SALMONELLA TYPHIMURIUM, Strain/Indicator: TA97, Metabolic Activation: NONE, Method: STANDARD PLATE
[8] = Test System: AMES SALMONELLA TYPHIMURIUM, Strain/Indicator: TA98, Metabolic Activation: NONE, Method: STANDARD PLATE
[9] = Test System: AMES SALMONELLA TYPHIMURIUM, Strain/Indicator: TA100, Metabolic Activation: NONE, Method: STANDARD PLATE

For `O=[N+]([O-])c1cc([N+](=O)[O-])c2ccccc2c1`, the mutagenic call [1] was “active; positive”, the mutagenic call [2] was “active; positive” and the mutagenic call [3] was “active; positive”. For the same molecule, the mutagenic call [4] was “active; positive”, the mutagenic call [5] was “active; positive” and the mutagenic call [6] was “active; positive”.
`CCN(COC(C)=O)N=O` was tested, and the mutagenic call (Test System: UDS RAT UROTHELIAL CELLS, Strain/Indicator: THY INCORP, Metabolic Activation: NONE) was “active; positive”.
With `CCc1ccnc2ccccc12` the mutagenic call (Test System: AMES SALMONELLA TYPHIMURIUM, Strain/Indicator: TA100, Metabolic Activation: RAT, LIVER, S-9, Method: PREINCUBATION) was “inactive; negative”.
With `CCOc1ccc(N(O)C(C)=O)cc1` the mutagenic call (End Point: IN VITRO MICRONUCLEUS, Test System: RAT KIDNEY FIBROBLAST NRK-49F, Metabolic Activation: NONE) was “active; positive”, the mutagenic call (Test System: AMES SALMONELLA TYPHIMURIUM, Strain/Indicator: TA100, Metabolic Activation: HAMSTER, LIVER, S-9, AROCLOR 1254, Method: LIQUID SUSPENSION) was “active; positive” and the mutagenic call (Test System: AMES SALMONELLA TYPHIMURIUM, Strain/Indicator: TA100, Metabolic Activation: HAMSTER, LIVER, S-9, KANECHLOR 400 (WITHOUT NADPH GENERATING SYSTEM), Method: PREINCUBATION) was “active; positive”. The mutagenic call [5] was “inactive; negative” and the mutagenic call (Test System: AMES SALMONELLA TYPHIMURIUM, Strain/Indicator: TA100, Metabolic Activation: RAT, LIVER, S-9, PCB, Method: LIQUID SUSPENSION) was “active; positive”.
For `c1ccc(C2CO2)cc1` (configuration not stated), the mutagenic call (End Point: IN VITRO CHROMOSOMAL ABERRATIONS, Test System: CHL CELLS, Metabolic Activation: RAT, LIVER, S-9, SODIUM PHENOBARBITAL AND 5,6-BENZOFLAVONE) was “active; positive (structural changes)”, the mutagenic call [7] was “active; positive” and the mutagenic call (Test System: AMES SALMONELLA TYPHIMURIUM, Strain/Indicator: TA97, Metabolic Activation: RAT, LIVER, S-9, AROCLOR 1254, Method: STANDARD PLATE) was “inactive; negative”. For the same molecule, the mutagenic call [1] was “inactive; negative”, the mutagenic call [8] was “inactive; negative” and the mutagenic call (Test System: AMES SALMONELLA TYPHIMURIUM, Strain/Indicator: TA98, Metabolic Activation: RAT LIVER S-9, PHENOBARBITAL AND BETA-NAPHTHOFLAVONE, Method: PREINCUBATION) was “inactive; negative”. For the same molecule, the mutagenic call [3] was “inactive; negative”, the mutagenic call (Test System: AMES SALMONELLA TYPHIMURIUM, Strain/Indicator: TA98, Metabolic Activation: RAT, LIVER, S-9, AROCLOR 1254, Method: STANDARD PLATE) was “inactive; negative” and the mutagenic call [4] was “active; positive”. For the same molecule, the mutagenic call [5] was “active; positive”, the mutagenic call [9] was “active; positive” and the mutagenic call (Test System: AMES SALMONELLA TYPHIMURIUM, Strain/Indicator: TA100, Metabolic Activation: RAT LIVER S-9, PHENOBARBITAL AND BETA-NAPHTHOFLAVONE, Method: PREINCUBATION) was “active; positive”. For the same molecule, the mutagenic call [6] was “active; positive”, the mutagenic call (Test System: AMES SALMONELLA TYPHIMURIUM, Strain/Indicator: TA100, Metabolic Activation: RAT, LIVER, S-9, AROCLOR 1254, Method: STANDARD PLATE) was “inactive; negative” and the mutagenic call (Test System: AMES SALMONELLA TYPHIMURIUM, Strain/Indicator: TA104, Metabolic Activation: NONE, Method: STANDARD PLATE) was “active; positive”. The mutagenic call (Test System: AMES SALMONELLA TYPHIMURIUM, Strain/Indicator: TA1535, Metabolic Activation: NONE, Method: PREINCUBATION) was “active; positive”, the mutagenic call (Test System: AMES SALMONELLA TYPHIMURIUM, Strain/Indicator: TA1535, Metabolic Activation: NONE, Method: STANDARD PLATE) was “active; positive” and the mutagenic call (Test System: AMES SALMONELLA TYPHIMURIUM, Strain/Indicator: TA1535, Metabolic Activation: RAT LIVER S-9, PHENOBARBITAL AND BETA-NAPHTHOFLAVONE, Method: PREINCUBATION) was “active; positive”. The mutagenic call (Test System: AMES SALMONELLA TYPHIMURIUM, Strain/Indicator: TA1537, Metabolic Activation: NONE, Method: PREINCUBATION) was “active; positive”, the mutagenic call (Test System: AMES SALMONELLA TYPHIMURIUM, Strain/Indicator: TA1537, Metabolic Activation: RAT LIVER S-9, PHENOBARBITAL AND BETA-NAPHTHOFLAVONE, Method: PREINCUBATION) was “inactive; negative” and the mutagenic call (Test System: AMES SALMONELLA TYPHIMURIUM, Strain/Indicator: TA4001, Metabolic Activation: NONE, Method: STANDARD PLATE) was “active; positive”. For the same molecule, the mutagenic call (Test System: AMES SALMONELLA TYPHIMURIUM, Strain/Indicator: TA4006, Metabolic Activation: NONE, Method: STANDARD PLATE) was “active; positive”, the mutagenic call (Test System: CHINESE HAMSTER V-79, Strain/Indicator: V-79/6-THIOGUANINE, Metabolic Activation: NONE, Method: FLASK ASSAY) was “inactive; negative” and the mutagenic call (Test System: CHINESE HAMSTER V-79, Strain/Indicator: V-79/8-AZAGUANINE, Metabolic Activation: NONE, Method: STANDARD PLATE) was “active; positive”. The mutagenic call (Test System: E. COLI, Strain/Indicator: WP2 UVRA, Metabolic Activation: NONE, Method: STANDARD PLATE) was “active; positive”, the mutagenic call (Test System: E.COLI, Strain/Indicator: WP2UVRA, Metabolic Activation: NONE, Method: PREINCUBATION) was “active; positive” and the mutagenic call (Test System: E.COLI, Strain/Indicator: WP2UVRA, Metabolic Activation: RAT LIVER S-9, PHENOBARBITAL AND BETA-NAPHTHOFLAVONE, Method: PREINCUBATION) was “active; positive”. For the same molecule, the mutagenic call (Test System: HUMAN T LYMPHOCYTES, PRIMARY CULTURES, Strain/Indicator: HPRT/6-THIOGUANINE, Metabolic Activation: NONE, Method: SUSPENSION/PLATE) was “active; positive” and the mutagenic call (Test System: UDS HUMAN CELLS, Strain/Indicator: THY INCORP (NON-S-PHASE), Metabolic Activation: NONE, Method: LIQUID SCINTILLATION COUNTING) was “active; positive”.
With `CCOP(=O)(OCC)Oc1nc(Cl)c(Cl)cc1Cl` the mutagenic call [8] was “inactive; negative”, the mutagenic call (Test System: AMES SALMONELLA TYPHIMURIUM, Strain/Indicator: TA98, Metabolic Activation: RAT, LIVER, S-9, Method: STANDARD PLATE) was “inactive; negative” and the mutagenic call [9] was “inactive; negative”. For the same molecule, the mutagenic call (Test System: AMES SALMONELLA TYPHIMURIUM, Strain/Indicator: TA100, Metabolic Activation: RAT, LIVER, S-9, Method: STANDARD PLATE) was “inactive; negative”.
In the case of `CNc1ccc(O)c2c1C(=O)c1c(O)ccc(NC)c1C2=O`, the mutagenic call (Test System: Ames Salmonella typhimurium, Strain/Indicator: TA98, Metabolic Activation: None, Method: Preincubation) is reported as “active; positive”, the mutagenic call (Test System: Ames Salmonella typhimurium, Strain/Indicator: TA100, Metabolic Activation: None, Method: Preincubation) is reported as “active; positive” and the mutagenic call (Test System: Ames Salmonella typhimurium, Strain/Indicator: TA102, Metabolic Activation: None, Method: Preincubation) is reported as “inactive; negative”. The mutagenic call (Test System: Ames Salmonella typhimurium, Strain/Indicator: TA1535, Metabolic Activation: None, Method: Preincubation) was “active; positive”.
`CCCN(CCCCO)N=O` was tested, and the mutagenic call (Test System: AMES SALMONELLA TYPHIMURIUM, Strain/Indicator: TA1535, Metabolic Activation: RAT, LIVER, S-9, KC500 OR PHENOBARBITAL, Method: LIQUID SUSPENSION) was “active; positive”.
For `O=C/C(=C(/Cl)C(=O)O)C(Cl)Cl`, the mutagenic call [7] was “inactive; negative”, the mutagenic call (Test System: AMES SALMONELLA TYPHIMURIUM, Strain/Indicator: TA97, Metabolic Activation: RAT, LIVER, S-9, PHENOBARBITAL, Method: STANDARD PLATE) was “inactive; negative” and the mutagenic call [2] was “active; positive”. For the same molecule, the mutagenic call [8] was “active; positive”, the mutagenic call (Test System: AMES SALMONELLA TYPHIMURIUM, Strain/Indicator: TA98, Metabolic Activation: RAT, LIVER, S-9, PHENOBARBITAL, Method: STANDARD PLATE) was “inactive; negative” and the mutagenic call [5] was “active; positive”. The mutagenic call [9] was “active; positive”, the mutagenic call (Test System: AMES SALMONELLA TYPHIMURIUM, Strain/Indicator: TA100, Metabolic Activation: RAT, LIVER, S-9, PHENOBARBITAL, Method: STANDARD PLATE) was “inactive; negative” and the mutagenic call (Test System: AMES SALMONELLA TYPHIMURIUM, Strain/Indicator: TA104, Metabolic Activation: NONE, Method: PREINCUBATION) was “active; positive”.
With `c1ccc2c(c1)cc1cccc3c4cccc5cccc(c54)c2c13` the mutagenic call (Test System: HUMAN H1A1V2 CELLS, Strain/Indicator: TK LOCUS, Metabolic Activation: NONE, Method: SUSPENSION/PLATE) was “active; positive”.
In the case of `CCCN(CO)N=O`, the mutagenic call (Test System: CHINESE HAMSTER V-79, Strain/Indicator: V-79/OUABAIN, Metabolic Activation: NONE) is reported as “active; positive”.
